System: HepG2 cells
Test: Transwell migration assay
Type: cell-based
Details: Homo sapiens, 48 h, vs ethanol control, read-out: inhibition of cell migration
Description: The transwell migration and invasion experiments were conducted using a 24-well plate (cat# 3422, Corning). HepG2 and SMMC-7721 cells (5 × 10^4) were suspended in 100 µL of medium supplied with ethanol, 150 and 300 µM of BCP and added to the top chamber, while 600 µL of complete medium containing 10% FBS was added into the lower chamber. After 48 h of incubation at 37°C, the cells from the top chamber were carefully removed using a cotton swab, while the cells penetrated through the membrane were fixed using 600 µL of 70% methanol for 15 min. To stain the cells, 600 µL of 0.2% crystal violet was used to treat the Transwell inserts for 10 min, followed by washing and drying, and the membranes of the inserts were photographed using an inverted microscope (Leica DM13000 B). The positive staining area was calculated using ImageJ software.

## C=C1CC/C=C(\C)CC[C@@H]2[C@@H]1CC2(C)C [BCP, β-caryophyllene]
HepG2, 150 µM
  inhibition at 150 µM: 49%
HepG2, 300 µM
  inhibition at 300 µM: 75.6%

Source: PMC11671526, “β-caryophyllene sensitizes hepatocellular carcinoma cells to chemotherapeutics and inhibits cell malignancy through targeting MAPK signaling pathway” (Frontiers in Pharmacology, 2024)
